Measured values: patent US10613105B2, “Competitive immunoassay test system for detecting a pyrogen” (FRAUNHOFER-GESELLSCHAFT ZUR FORDERUNG DER ANGEWANDTEN …, priority 2014, dated 2020)

Target: T1, TLR4 (Homo sapiens, UniProt O00206)
T1 construct: purchased Hölzel Diagnostik GmbH 10146-H08B-100; host or cells: baculovirus insect cells
Assay: Surface plasmon resonance spectroscopy (Biacore T200), TLR4 immobilized on NTA sensor chip via his-tag
Format: binding
Conditions: for Ka in 1/M / Kd: HBS-P+ with 50 μM EDTA, 20° C., 10 μL/min, 5 concentrations
From the text: The affinity of a ligand to its receptor describes the tendency thereof to enter into a bond with the receptor. The greater affinity, the greater the association constant Ka is. The strength of the receptor/ligand interaction can be determined experimentally with the aid of surface plasmon resonance spectroscopy (Biacore T200, GE Healthcare) and quantified by the so-called dissociation constant (Kd). Kd is thereby the reciprocal value of Ka, a thermodynamic value, which indicates which portion of the ligand is bound on average to the receptor protein and has the dimension of a concentration. The Biacore chip system is based on a glass slide with a gold film in a flow cell. TLR4 was immobilized on the NTA sensor chip via its his-tag in accordance with the manufacturer's protocol and the to-be-tested ligands, control compounds and LPS were passed over it dissolved in HBS-P+ with 50 μM EDTA at 20° C. with a flow rate of 10 μL/min in respectively 5 concentrations. The bond with TLR4 is measured as a change in the refractive index in the flow cell as compared to a reference cell as a response difference in RU. 1 RU corresponds thereby to 1 pg of bound ligand. After ligand injection, buffer is used for rinsing in order to ideally recreate the initial state, complete disassociation of the ligand.

T1 sequence (O00206 24-631 limits assumed): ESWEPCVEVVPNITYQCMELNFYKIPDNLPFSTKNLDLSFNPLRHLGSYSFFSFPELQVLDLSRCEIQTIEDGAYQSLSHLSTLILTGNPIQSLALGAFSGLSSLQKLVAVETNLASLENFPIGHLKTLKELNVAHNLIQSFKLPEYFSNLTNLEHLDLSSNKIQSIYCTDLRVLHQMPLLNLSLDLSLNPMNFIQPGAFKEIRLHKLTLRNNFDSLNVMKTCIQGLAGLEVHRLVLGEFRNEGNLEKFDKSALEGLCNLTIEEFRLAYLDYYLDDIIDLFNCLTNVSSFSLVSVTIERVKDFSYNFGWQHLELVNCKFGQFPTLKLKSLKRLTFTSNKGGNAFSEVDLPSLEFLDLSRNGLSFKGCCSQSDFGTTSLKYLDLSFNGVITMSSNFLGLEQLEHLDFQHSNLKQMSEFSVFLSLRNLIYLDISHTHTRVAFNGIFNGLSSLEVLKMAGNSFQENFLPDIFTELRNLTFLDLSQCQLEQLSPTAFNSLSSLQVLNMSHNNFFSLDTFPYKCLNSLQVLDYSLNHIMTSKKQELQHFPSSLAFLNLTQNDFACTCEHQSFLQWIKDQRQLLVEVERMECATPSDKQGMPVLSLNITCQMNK

Structure (SMILES)	Ka in 1/M	Kd [nM]	reduction of binding affinity for TLR4 by the TAMRA labeling (T5635346 with vs without TAMRA labeling) [fold]
Cc1ccc(C(=O)N2CCOCC2)c(O)c1 [T5635346, (2-hydroxy-4-methylphenyl)-morpholin-4-ylmethanone]	4,135,649 1/M	242	40
CC(C)CN1CCOC(CNC(=O)Nc2ccc3c(c2)OCO3)C1 (centres unmarked) [T5874283, 1-(1,3-benzodioxol-5-yl)-3-[[4-(2-methylpropyl)morpholin-2-yl]methyl]urea]	9,803,922 1/M	102	–
